The values that follow come from article PMC8034185, “The rumen eukaryotome is a source of novel antimicrobial peptides with therapeutic potential” (BMC Microbiology, 2021).

Ends that are not written are not given here.

The subject of series [1] is human red blood cells. In words: Haemolytic activity. Format: cell-based. The note with it: human RBC, CTAB control.
Description: (§1) Fresh human red blood cells (RBC) (Cambridge Bioscience, UK) and defibrinated sheep erythrocytes (Oxoid Ltd. Hampshire, UK) were washed 3 times with PBS, centrifuged for 5 min at 500 rpm between each wash and resuspended to 4% (v/v) in PBS. […] The percentage of haemolysis was calculated according to the equation: (A450 peptide solution − A450 PBS)/ (A450 0.1% Triton X-100 − A450 PBS) × 100. The therapeutic index (T.I.) was calculated as the ratio of the minimum haemolytic concentration ((MHC)- causing 5% haemolysis to human erythrocytes) to the minimum inhibitory concentration (MICGM+) [46]. The MICGM+ was the minimum inhibitory concentration of the peptide against Gram-positive bacterial strains after the geometric mean was calculated.
Series [2] concerns S. aureus strains. Format: cell-based, Staphylococcus aureus.
The test system of series [3] is drug resistant A. baumannii isolates. Format: cell-based, Acinetobacter baumannii.
Description: MICs against a range of clinically important Gram-positive and Gram-negative bacteria strains including methicillin-sensitive Staphylococcus aureus (MSSA) RN4220 epidemic methicillin-resistant S. aureus-15 (EMRSA-15), methicillin-resistant S. aureus USA300 (MRSA USA300), Bacillus cereus, Enterococcus faecalis JH2–2, Escherichia coli K12, Salmonella enterica serovar Typhimurium SL1344, P. aeruginosa PAO1, and hospital isolates of Acinetobacter baummannii were determined in quadruplicate by a modified microdilution broth method [64] with a final bacterial inoculum concentration of 5 × 10^5 CFU/mL utilised as the test organisms. Cation-adjusted Mueller Hinton (MH) broth was innoclated overnight with a single colony of the tested microorganisms, subsequently grown for 16–24 h with shaking at 225 rpm, and further diluted in the same broth to a final concentration of 5 × 10^5 CFU/mL. The bacterial suspension was added to sterile U-bottomed 96-well plates, and the peptides and control antibiotics to be tested were dissolved in sterile distilled water and serially diluted in the wells. The MICs were recorded as the lowest peptide concentration that inhibited growth after incubation for 18 h [65]. […]
The test system of series [4] is sheep erythrocytes. The series is described as follows: Haemolytic activity. The following applies: for haemolysis of sheep erythrocytes: 1 h; for Haemolytic activity (Minus PBS/average positive*100): sheep erythrocytes. The class given is cell-based.
Description: as §1

Turning to `CCCCCCCCCCCCCCCC[N+](C)(C)C.[Br-]` [CTAB], the Haemolytic in series [1] worked out at 100.

With GIVAWFWRLAR [Lubelisin], the “MIC against S. aureus strains” value in series [2] amounted to 8 µg/mL. For the same molecule, the “MIC against drug resistant A. baumannii isolates” value in series [3] turned out to be 128 µg/mL. The “haemolysis of sheep erythrocytes” value in series [4] (16 μg/mL) is recorded as approximately 20%; in series [4] (24 μg/mL), approximately 30%. The “Haemolytic activity (Minus PBS/average positive*100)” value was 12.8836 in series [4] (1x MIC, mean); 12.4097 in series [4] (1x MIC, replicate 1); 12.5903 in series [4] (1x MIC, replicate 2); 11.8682 in series [4] (1x MIC, replicate 3); 14.6661 in series [4] (1x MIC, replicate 4); 18.8177 in series [4] (2x MIC, mean). In addition, the “Haemolytic activity (Minus PBS/average positive*100)” value in series [4] (2x MIC, replicate 1) worked out at 17.1029; in series [4] (2x MIC, replicate 2), 22.6986; in series [4] (2x MIC, replicate 3), 19.9007; in series [4] (2x MIC, replicate 4), 15.5686; in series [4] (3x MIC, mean), 33.7319; in series [4] (3x MIC, replicate 1) it was 34.2509. The “Haemolytic activity (Minus PBS/average positive*100)” value in series [4] (3x MIC, replicate 2) stood at 33.1679; in series [4] (3x MIC, replicate 3), 33.7094; in series [4] (3x MIC, replicate 4), 33.7996.
